Data from DBAASP.
In brackets after ≈: the same amount, converted by molar mass. Several values for one entry are separate records, joined by “and”; a condition that tells them apart may be missing. Identical values can stand only once.

Assays:
Experiment in all cases: ≥ marks a high value that may be exact or a test limit, other limits are often not marked, values filed in µg/mL are converted to µM
[1] = test system: Bacillus subtilis MTCC 14416
[2] = test system: Enterococcus faecalis ATCC 29212
Escherichia coli MG1655 = test system: Escherichia coli MG1655
[3] = test system: Staphylococcus aureus ATCC 43300
[4] = test system: Staphylococcus aureus MTCC 9542
Vibrio cholerae = test system: Vibrio cholerae
Citrobacter koseri = test system: Citrobacter koseri
Escherichia coli BL21 = test system: Escherichia coli BL21
Escherichia coli JM109 = test system: Escherichia coli JM109
[5] = test system: Klebsiella pneumoniae CCRC 10694
Pseudomonas aeruginosa = test system: Pseudomonas aeruginosa
Salmonella enterica = test system: Salmonella enterica
[6] = test system: Salmonella typhimurium CCRC 12947
[7] = test system: Staphylococcus aureus CCRC 12652
[8] = test system: Staphylococcus aureus CCRC 15211
Staphylococcus xylosus = test system: Staphylococcus xylosus
[9] = test system: Streptococcus alactolyticus
[10] = test system: Vibrio parahaemolyticus CCRC 10806
[11] = test system: Acinetobacter baumannii ATCC 15308
[12] = test system: Enterococcus faecium ATCC 19434
Escherichia coli BL2 = test system: Escherichia coli BL2
[13] = test system: Micrococcus luteus ATCC 7468
[14] = test system: Pseudomonas sp. ATCC 15915
[15] = test system: Staphylococcus aureus ATCC 502A
[16] = test system: Acinetobacter baumannii ATCC 17978
[17] = test system: Acinetobacter baumannii AYE
[18] = test system: Candida albicans NCPF 3179
[19] = test system: Enterococcus faecalis NCTC 12201
[20] = test system: Enterococcus faecalis NCTC 775
Klebsiella pneumoniae M6 = test system: Klebsiella pneumoniae M6
[21] = test system: Klebsiella pneumoniae NCTC 13368
[22] = test system: Pseudomonas aeruginosa NCTC 13437
[23] = test system: Pseudomonas aeruginosa PAO1
[24] = test system: Staphylococcus aureus NCTC 13277
[25] = test system: Staphylococcus aureus NCTC 13616
[26] = test system: Staphylococcus aureus NCTC 6571
Escherichia coli SPE 001 = test system: Escherichia coli SPE 001
[27] = test system: Staphylococcus aureus SPM 101
Candida tropicalis = test system: Candida tropicalis
Alternaria alternata = test system: Alternaria alternata
Botrytis cinerea = test system: Botrytis cinerea
Cladosporium herbarum = test system: Cladosporium herbarum
[28] = test system: Clavibacter michiganensis subsp. michiganensis DSM 46294
[29] = test system: Pectobacterium carotovorum subsp. carotovorum DSM 30168
[30] = test system: Pseudomonas corrugata DSM 7228
[31] = test system: Pseudomonas syringae pv. syringae DSM 10604
[32] = test system: Pseudomonas syringae pv. tomato DC3000
[33] = test system: Staphylococcus aureus 90857
[34] = test system: Xanthomonas vesicatoria DSM 50861

CC[C@H](C)[C@H](NC(=O)[C@H](C)NC(=O)[C@H](CS)NC(=O)[C@H](Cc1ccccc1)NC(=O)[C@@H](NC(=O)[C@H](CCCCN)NC(=O)[C@@H]1CCCN1C(=O)[C@H](CC(C)C)NC(=O)[C@H](Cc1ccccc1)NC(=O)[C@H](CCCCN)NC(=O)[C@H](C)NC(=O)[C@H](C)NC(=O)[C@H](CCSC)NC(=O)CNC(=O)[C@H](C)NC(=O)[C@@H](NC(=O)[C@H](Cc1ccccc1)NC(=O)[C@@H]1CCCN1C(=O)[C@H](CC(C)C)NC(=O)[C@@H](N)Cc1ccccc1)[C@@H](C)CC)[C@@H](C)CC)C(=O)N[C@@H](CO)C(=O)N[C@@H](CCCCN)C(=O)N[C@@H](CCCCN)C(N)=O [FLPFIAGMAAKFLPKIFCAISKK]
MIC [1]: 9.83 µM (≈ 25 µg/mL)
MIC [2]: 9.83 µM (≈ 25 µg/mL)
MIC (Escherichia coli MG1655): 7.87 µM (≈ 20 µg/mL)
MIC [3]: 2.46 µM (≈ 6.25 µg/mL)
MIC [4]: 9.83 µM (≈ 25 µg/mL)
MIC (Vibrio cholerae): 9.83 µM (≈ 25 µg/mL)

CC[C@H](C)[C@H](N)C(=O)N[C@@H](CC(N)=O)C(=O)N[C@@H](CC(C)C)C(=O)N[C@@H](CCCCN)C(=O)N[C@@H](C)C(=O)N[C@H](C(=O)N[C@@H](C)C(=O)N[C@@H](C)C(=O)N[C@@H](Cc1ccccc1)C(=O)N[C@@H](C)C(=O)N[C@@H](CCCCN)C(=O)N[C@@H](CCCCN)C(=O)N[C@@H](CC(C)C)C(=O)N[C@@H](CC(C)C)C(N)=O)[C@@H](C)CC [INLKAIAAFAKKLL]
MIC (Citrobacter koseri): 2.64 µM (≈ 4 µg/mL)
MIC (Escherichia coli BL21): 5.28 µM (≈ 7.99 µg/mL)
MIC (Escherichia coli JM109): 5.28 µM (≈ 7.99 µg/mL)
MIC [5]: 21.1 µM (≈ 32 µg/mL)
MIC (Pseudomonas aeruginosa): 84.5 µM (≈ 128 µg/mL)
MIC (Salmonella enterica): 10.6 µM (≈ 16 µg/mL)
MIC [6]: 21.1 µM (≈ 32 µg/mL)
MIC [7]: 15.9 µM (≈ 24 µg/mL)
MIC [8]: 21.1 µM (≈ 32 µg/mL)
MIC (Staphylococcus xylosus): 1.32 µM (≈ 2 µg/mL)
MIC [9]: 10.6 µM (≈ 16 µg/mL)
MIC [10]: 21.1 µM (≈ 32 µg/mL)

CC[C@H](C)[C@H](NC(=O)[C@H](C)NC(=O)[C@H](Cc1ccccc1)NC(=O)[C@H](Cc1c[nH]c2ccccc12)NC(=O)[C@H](CCC(N)=O)NC(=O)[C@H](C)NC(=O)[C@H](CCCN=C(N)N)NC(=O)[C@@H](NC(=O)[C@H](Cc1ccccc1)NC(=O)[C@H](CCC(N)=O)NC(=O)[C@@H]1CCCN1C(=O)[C@@H]1CCCN1C(=O)[C@@H](N)CCCN=C(N)N)[C@@H](C)O)C(=O)N[C@@H](CCC(N)=O)C(=O)N[C@@H](Cc1cnc[nH]1)C(=O)N[C@H](C(=O)N[C@@H](CO)C(=O)N[C@@H](CC(C)C)C(=O)N[C@@H](CC(N)=O)C(=O)O)[C@@H](C)CC [RPPQFTRAQWFAIQHISLN]
MIC [11]: 10 µM (≈ 23.1 µg/mL)
MIC [12]: 10 µM (≈ 23.1 µg/mL)
MIC (Escherichia coli BL2): 10 µM (≈ 23.1 µg/mL)
MIC [13]: 10 µM (≈ 23.1 µg/mL)
MIC [14]: 10 µM (≈ 23.1 µg/mL)
MIC [15]: 10 µM (≈ 23.1 µg/mL)

CC[C@H](C)[C@H](NC(=O)[C@@H]1CCCN1C(=O)[C@H](CC(C)C)NC(=O)[C@H](CC(C)C)NC(=O)[C@H](CCCCN)NC(=O)[C@@H](N)CCCCN)C(=O)N[C@H](C(=O)N[C@@H](C)C(=O)N[C@@H](CC(N)=O)C(=O)N[C@@H](CC(C)C)C(=O)N[C@@H](CC(C)C)C(=O)N[C@@H](CCCCN)C(=O)N[C@@H](CO)C(=O)N[C@@H](CC(C)C)C(=O)N[C@@H](CC(C)C)C(N)=O)C(C)C [KKLLPIVANLLKSLL]
MIC [16]: 19.2 µM and ≥ 38.5 µM
MIC [17]: 19.2 µM and ≥ 38.5 µM
MIC [18]: ≥ 77 µM
MIC [19]: ≥ 77 µM
MIC [20]: ≥ 77 µM
MIC (Klebsiella pneumoniae M6): ≥ 77 µM
MIC [21]: ≥ 77 µM
MIC [22]: ≥ 77 µM
MIC [23]: > 77 µM
MIC [24]: ≥ 77 µM
MIC [25]: ≥ 77 µM
MIC [26]: ≥ 77 µM

CC(C)C[C@H](NC(=O)[C@H](CCCCN)NC(=O)[C@H](CC(C)C)NC(=O)[C@H](CC(C)C)NC(=O)[C@H](CC(C)C)NC(=O)[C@H](CC(C)C)NC(=O)[C@H](CCCCN)NC(=O)[C@H](CC(C)C)NC(=O)[C@@H](N)CCCCN)C(=O)N[C@@H](CCCCN)C(N)=O [KLKLLLLKLK]
MIC (Escherichia coli SPE 001): 26.5 µM (≈ 32 µg/mL)
MIC [27]: 1.65 µM (≈ 2 µg/mL)

CSCC[C@H](NC(=O)[C@@H](N)CC(C)C)C(=O)N[C@H]1CSSC[C@@H](C(=O)N[C@@H](CO)C(=O)N[C@@H](CC(N)=O)C(=O)O)NC(=O)[C@H](CC(=O)O)NC(=O)[C@H](CC(C)C)NC(=O)[C@@H]2CCCN2C(=O)[C@H](Cc2cnc[nH]2)NC(=O)[C@H]([C@@H](C)O)NC1=O [LMCTHPLDCSN]
MIC (Candida tropicalis): 25.9 µM (≈ 31.9 µg/mL)

CC[C@H](C)[C@H](NC(=O)[C@H](CCCCN)NC(=O)[C@H](CCCCN)NC(=O)[C@H](CC(C)C)NC(=O)[C@H](Cc1ccccc1)NC(=O)[C@H](CCCN=C(N)N)NC(=O)[C@@H](N)CC(C)C)C(=O)N[C@@H](CC(C)C)C(=O)N[C@@H](CCCCN)C(=O)N[C@@H](Cc1cnc[nH]1)C(=O)N[C@@H](CC(C)C)C(=O)N[C@@H](Cc1ccccc1)C(N)=O [LRFLKKILKHLF]
MIC (Alternaria alternata): ≥ 64.3 µM
MIC (Botrytis cinerea): ≥ 64.3 µM
MIC (Cladosporium herbarum): 6.43 µM (≈ 9.99 µg/mL)
MIC [28]: 6.43 µM (≈ 9.99 µg/mL)
MIC [29]: 12.9 µM (≈ 20 µg/mL)
MIC [30]: 12.9 µM (≈ 20 µg/mL)
MIC [31]: 6.43 µM (≈ 9.99 µg/mL)
MIC [32]: 6.43 µM (≈ 9.99 µg/mL)
MIC [33]: 1.5 µM (≈ 2.33 µg/mL)
MIC [34]: 3.21 µM (≈ 5 µg/mL)
